We go through 26 molecules from US20250122225A1, “MASP-2 INHIBITORS AND METHODS OF USE” (Omeros Corporation, priority 2023, published 2025).

For one test, the target named is T1, MASP-2 (CCP1-CCP2-SP) (Homo sapiens, UniProt O00187).
T1 construct: 15 μL of Enzyme MASP-2 (CCP1-CCP2-SP) in Assay Buffer
The test can be described thus: Enzymatic assay for MASP-2 inhibitory activity (fluorogenic substrate). Format: biochemical. The essentials:
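Fluorescence was normalized between no-enzyme and DMSO-only controls to derive % activity, with IC50 taken as equivalent to Ki except for tight-binding inhibitors. Reactions ran 20 min at room temperature in HEPES pH 7.4/NaCl/Tween 20 buffer, using the C2-derived fluorogenic substrate, before acetic acid stop.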

For the next test, the target named is T2, human α-thrombin (Homo sapiens, UniProt P00734).
T2 construct: enzyme (human α-thrombin (BioPharm® Lab.)) in assay buffer; purchased BioPharm® Lab
The experiment in a line: Enzymatic assay for thrombin (fluorogenic peptide substrate Boc-VPR-AMC). It is filed as biochemical. An outline of the steps: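 Assay conditions kept the reaction linear in time, enzyme and substrate, so IC50 approximated Ki apart from tight- or slow-binding cases. Boc-VPR-AMC cleavage by human α-thrombin proceeded 20 min at room temperature in Hepes pH 7.4/NaCl/Tween 20 buffer, then was acid-quenched and read by fluorescence.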

Where a name gives a salt, the structure may show the parent alone.

T1 sequence (O00187 445-686 limits assumed): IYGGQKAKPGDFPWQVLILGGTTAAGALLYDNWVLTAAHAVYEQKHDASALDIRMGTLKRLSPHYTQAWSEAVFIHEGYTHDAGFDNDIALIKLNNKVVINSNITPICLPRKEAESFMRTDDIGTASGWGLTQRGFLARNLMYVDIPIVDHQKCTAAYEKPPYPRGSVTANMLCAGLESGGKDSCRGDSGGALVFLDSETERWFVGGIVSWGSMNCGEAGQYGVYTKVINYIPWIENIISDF
T1 sequence (O00187 287-444 partner limits assumed): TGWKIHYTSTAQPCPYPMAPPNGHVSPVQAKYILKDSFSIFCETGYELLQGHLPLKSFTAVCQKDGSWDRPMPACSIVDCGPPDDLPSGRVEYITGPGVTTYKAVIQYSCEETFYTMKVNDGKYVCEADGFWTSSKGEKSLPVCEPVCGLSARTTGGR

`Cc1cc(F)cc(CNc2nc(C(C)C)c3n(c2=O)[C@H](C(=O)NCc2ccc(N)nc2C)CC3)c1` [Compound 211, (S)-N-((6-amino-2-methylpyridin-3-yl)methyl)-3-((3-fluoro-5-methylbenzyl)amino)-1-isopropyl-4-oxo-4,6,7,8-tetrahydropyrrolo[1,2-a]pyrazine-6-carboxamide trifluoroacetate]: the Ki at MASP-2 (CCP1-CCP2-SP) and at human α-thrombin was less than 500 nM in each case.

As for `Cc1cc(F)cc(CNc2nc(Cl)c3n(c2=O)[C@H](C(=O)NCc2ccc(N)nc2C)CC3)c1` [Compound 212, (S)—N-((6-amino-2-methylpyridin-3-yl)methyl)-1-chloro-3-((3-fluoro-5-methylbenzyl)amino)-4-oxo-4,6,7,8-tetrahydropyrrolo[1,2-a]pyrazine-6-carboxamide trifluoroacetate], the Ki is less than 500 nM at MASP-2 (CCP1-CCP2-SP) and 2500 to 10000 nM at human α-thrombin.

Consider `Cc1cc(F)cc(CNc2nc(-c3cnn(C(F)F)c3)c3n(c2=O)[C@H](C(=O)NCc2ccc(N)nc2C)CC3)c1` [Compound 214, (S)—N-((6-amino-2-methylpyridin-3-yl)methyl)-1-(1-(difluoromethyl)-1H-pyrazol-4-yl)-3-((3-fluoro-5-methylbenzyl)amino)-4-oxo-4,6,7,8-tetrahydropyrrolo[1,2-a]pyrazine-6-carboxamide trifluoroacetate], for which the Ki was less than 500 nM at MASP-2 (CCP1-CCP2-SP) and greater than 25000 nM at human α-thrombin.

In the case of `Cc1cc(F)cc(CNc2nc(-c3cnn(C(F)F)c3)c3n(c2=O)[C@H](C(=O)NCc2cc4cnccc4[nH]2)CC3)c1` [Compound 215, (S)-N-((1H-pyrrolo[3,2-c]pyridin-2-yl)methyl)-1-(1-(difluoromethyl)-1H-pyrazol-4-yl)-3-((3-fluoro-5-methylbenzyl)amino)-4-oxo-4,6,7,8-tetrahydropyrrolo[1,2-a]pyrazine-6-carboxamide trifluoroacetate], the Ki is less than 500 nM at MASP-2 (CCP1-CCP2-SP) and greater than 25000 nM at human α-thrombin.

`Cc1cc(F)cc(CNc2nc(-c3cnn(C(F)F)c3)c3n(c2=O)[C@H](C(=O)NCc2ccc(N)nc2)CC3)c1` [Compound 216, (S)-N-((6-aminopyridin-3-yl)methyl)-1-(1-(difluoromethyl)-1H-pyrazol-4-yl)-3-((3-fluoro-5-methylbenzyl)amino)-4-oxo-4,6,7,8-tetrahydropyrrolo[1,2-a]pyrazine-6-carboxamide trifluoroacetate]: the Ki on MASP-2 (CCP1-CCP2-SP) is less than 500 nM; at human α-thrombin it was greater than 25000 nM.

On to `Cc1cc(F)cc(CNc2nc(-c3ccccc3)c3n(c2=O)[C@H](C(=O)NCc2ccc(N)nc2C)CC3)c1` [Compound 217, (S)-N-((6-amino-2-methylpyridin-3-yl)methyl)-3-((3-fluoro-5-methylbenzyl)amino)-4-oxo-1-phenyl-4,6,7,8-tetrahydropyrrolo[1,2-a]pyrazine-6-carboxamide trifluoroacetate], for which the Ki is less than 500 nM at MASP-2 (CCP1-CCP2-SP) and greater than 25000 nM at human α-thrombin.

For the molecule `[2H]C([2H])([2H])c1nc(NCc2cc(C)cc(F)c2)c(=O)n2c1CC[C@H]2C(=O)NCc1ccc(N)nc1C` [Compound 218, (S)-N-((6-amino-2-methylpyridin-3-yl)methyl)-3-((3-fluoro-5-methylbenzyl)amino)-1-(methyl-d3)-4-oxo-4,6,7,8-tetrahydropyrrolo[1,2-a]pyrazine-6-carboxamide trifluoroacetate], the Ki at MASP-2 (CCP1-CCP2-SP) and at human α-thrombin was less than 500 nM each time.

As for `Cc1cc(F)cc(CNc2nc(-c3cnn(C(F)F)c3)c3n(c2=O)[C@H](C(=O)NCc2cc4c(s2)CNC4)CC3)c1` [Compound 219, (S)-1-(1-(difluoromethyl)-1H-pyrazol-4-yl)-N-((5,6-dihydro-4H-thieno[2,3-c]pyrrol-2-yl)methyl)-3-((3-fluoro-5-methylbenzyl)amino)-4-oxo-4,6,7,8-tetrahydropyrrolo[1,2-a]pyrazine-6-carboxamide trifluoroacetate], the results for the Ki on MASP-2 (CCP1-CCP2-SP) and at human α-thrombin were less than 500 nM and greater than 25000 nM, respectively.

Turning to `Cc1nc(N)ccc1CNC(=O)[C@@H]1CCc2cnc(NCc3cccc(-c4ccccc4)c3)c(=O)n21` [Compound 220, (S)-3-(([1,1′-biphenyl]-3-ylmethyl)amino)-N-((6-amino-2-methylpyridin-3-yl)methyl)-4-oxo-4,6,7,8-tetrahydropyrrolo[1,2-a]pyrazine-6-carboxamide trifluoroacetate], the Ki on MASP-2 (CCP1-CCP2-SP) and on human α-thrombin was less than 500 nM each time.

On to `Cc1cc(F)cc(CNc2nc(C#N)c3n(c2=O)[C@H](C(=O)NCc2ccc(N)nc2C)CC3)c1` [Compound 222, (S)—N-((6-amino-2-methylpyridin-3-yl)methyl)-1-cyano-3-((3-fluoro-5-methylbenzyl)amino)-4-oxo-4,6,7,8-tetrahydropyrrolo[1,2-a]pyrazine-6-carboxamide trifluoroacetate], for which the values for the Ki on MASP-2 (CCP1-CCP2-SP) and on human α-thrombin were less than 500 nM and 2500 to 10000 nM, respectively.

For the molecule `Cc1ccc(F)c(CNc2nc(C#N)c3n(c2=O)[C@H](C(=O)NCc2ccc(N)nc2C)CC3)c1` [Compound 223, trifluoroacetate], the Ki at MASP-2 (CCP1-CCP2-SP) is less than 500 nM; on human α-thrombin, 2500 to 10000 nM.

As to `Cc1cc(F)c(F)c(CNc2ncc3n(c2=O)[C@H](C(=O)N[C@H](C)c2ccc(N)nc2)CC3)c1` [Compound 224, (S)—N—((R)-1-(6-aminopyridin-3-yl)ethyl)-3-((2,3-difluoro-5-methylbenzyl)amino)-4-oxo-4,6,7,8-tetrahydropyrrolo[1,2-a]pyrazine-6-carboxamide trifluoroacetate], the Ki was less than 500 nM on MASP-2 (CCP1-CCP2-SP) and 2500 to 10000 nM at human α-thrombin.

With `NCc1ccc(CNC(=O)[C@@H]2CCc3c(Cl)nc(NCc4ccc5c(c4)CCCC5)c(=O)n32)s1` [Compound 225, (S)—N-((5-(aminomethyl)thiophen-2-yl)methyl)-1-chloro-4-oxo-3-(((5,6,7,8-tetrahydronaphthalen-2-yl)methyl)amino)-4,6,7,8-tetrahydropyrrolo[1,2-a]pyrazine-6-carboxamide trifluoroacetate], the inhibitory constant (Ki) at MASP-2 (CCP1-CCP2-SP) was less than 500 nM; at human α-thrombin, greater than 25000 nM.

As to `C[C@@H]1C[C@@H](C(=O)NCc2cc3cnccc3[nH]2)n2c1cnc(NCc1ccccc1)c2=O` [Compound 227, trifluoroacetate], the Ki on MASP-2 (CCP1-CCP2-SP) was less than 500 nM; on human α-thrombin, 2500 to 10000 nM.

Turning to `CC1(C)C[C@@H](C(=O)NCc2cc3cnccc3[nH]2)n2c1c(Cl)nc(NCc1ccccc1)c2=O` [Compound 229, (S)-N-((1H-pyrrolo[3,2-c]pyridin-2-yl)methyl)-3-(benzylamino)-1-chloro-8,8-dimethyl-4-oxo-4,6,7,8-tetrahydropyrrolo[1,2-a]pyrazine-6-carboxamide trifluoroacetate], the Ki is less than 500 nM on MASP-2 (CCP1-CCP2-SP) and 2500 to 10000 nM on human α-thrombin.

For `O=C(NCc1cc2cnccc2[nH]1)[C@@H]1CC2(CCCC2)c2c(Cl)nc(NCc3ccccc3)c(=O)n21` [Compound 231, (S)—N-((1H-pyrrolo[3,2-c]pyridin-2-yl)methyl)-3′-(benzylamino)-1′-chloro-4′-oxo-6′,7′-dihydro-4′H-spiro[cyclopentane-1,8′-pyrrolo[1,2-a]pyrazine]-6′-carboxamide trifluoroacetate], the results for the Ki at MASP-2 (CCP1-CCP2-SP) and at human α-thrombin were less than 500 nM and 10000 to 25000 nM, respectively.

`Nc1nc(Cl)c2n(c1=O)[C@H](C(=O)NCc1cc3cnccc3[nH]1)CC21CCCC1` [Compound 232, (S)—N-((1H-pyrrolo[3,2-c]pyridin-2-yl)methyl)-3′-amino-1′-chloro-4′-oxo-6′,7′-dihydro-4′H-spiro[cyclopentane-1,8′-pyrrolo[1,2-a]pyrazine]-6′-carboxamide trifluoroacetate]: the Ki at MASP-2 (CCP1-CCP2-SP) was 500 to 2500 nM; on human α-thrombin it was greater than 25000 nM.

For `O=C(NCc1cc2cnccc2[nH]1)[C@@H]1CC2(CC=CC2)c2c(Cl)nc(NCc3ccccc3)c(=O)n21` [Compound 233, (S)—N-((1H-pyrrolo[3,2-c]pyridin-2-yl)methyl)-3′-(benzylamino)-1′-chloro-4′-oxo-6′,7′-dihydro-4′H-spiro[cyclopentane-1,8′-pyrrolo[1,2-a]pyrazin]-3-ene-6′-carboxamide trifluoroacetate], the Ki on MASP-2 (CCP1-CCP2-SP) was less than 500 nM; at human α-thrombin, greater than 25000 nM.

Regarding `CC[C@@H](Nc1ncc2n(c1=O)[C@H](C(=O)NCc1cc3c(s1)CNC3)CC2)c1ccccc1` [Compound 234], the inhibitory constant (Ki) on MASP-2 (CCP1-CCP2-SP) and on human α-thrombin was less than 500 nM each time.

As for `O=C(NCc1cc2c(s1)CNC2)[C@@H]1CCc2cnc(NC3CCc4ccccc43)c(=O)n21` (stereo partly shown) [Compound 235], the Ki on MASP-2 (CCP1-CCP2-SP) and on human α-thrombin was less than 500 nM throughout.

Take `Nc1ccc2c(n1)CC[C@H]2NC(=O)[C@@H]1CCc2cnc(NCc3cccc(-c4ccccc4)c3)c(=O)n21` [Compound 236]: the values for the Ki at MASP-2 (CCP1-CCP2-SP) and on human α-thrombin were less than 500 nM and 500 to 2500 nM, respectively.

`Cc1ccc(C)c(CNc2ncc3n(c2=O)[C@H](C(=O)N[C@H](C)c2ccc(N)nc2C)CC3)c1` [Compound 237]: the Ki is less than 500 nM at MASP-2 (CCP1-CCP2-SP) and 500 to 2500 nM on human α-thrombin.

On to `Cc1cc(C)cc(CNc2ncc3n(c2=O)[C@H](C(=O)N[C@H](C)c2ccc(N)nc2C)CC3)c1` [Compound 238], for which the Ki on MASP-2 (CCP1-CCP2-SP) was less than 500 nM; at human α-thrombin, 500 to 2500 nM.

For the molecule `O=C(NCc1cc2cnccc2[nH]1)[C@@H]1CCc2c(Cl)nc(NCCc3cccnc3)c(=O)n21` [Compound 241], the Ki on MASP-2 (CCP1-CCP2-SP) and on human α-thrombin was less than 500 nM throughout.

`O=C(NCc1cc2c(s1)CNC2)[C@@H]1CCc2c(Cl)nc(NCCc3ccccc3)c(=O)n21` [Compound 242]: the Ki on MASP-2 (CCP1-CCP2-SP) and at human α-thrombin was less than 500 nM in each case.

For `N=C(N)c1ccc(CNC(=O)[C@@H]2CCc3c(Cl)nc(NCc4ccccc4)c(=O)n32)cc1` [Compound 243], the Ki on MASP-2 (CCP1-CCP2-SP) and at human α-thrombin was less than 500 nM in each case.
